Results published in publication PMC9709425, “The inhibition of NCS-1 binding to Ric8a rescues fragile X syndrome mice model phenotypes” (Frontiers in Neuroscience, 2022).

Key:
[1] = test system: D. melanogaster FMRP mutants; settings: Drosophila melanogaster FXS model (FMRP mutants or fmr1 RNAi strain), FD44 in the food; ref Mansilla et al., 2017; cited from earlier work
DA metabolism = assay: DA levels and DA metabolic profile (HPLC) in brain areas of Fmr1 KO mice; format: in vivo, mouse; settings: FD44 IP for 4 weeks
Protocol: FD44 solution formulation in 5% NMP, 5% Solutol HS-15, 30% PEG-400, and 60% citric acid (10 mM) was administered in doses of 10 and 50 mg/kg dose intraperitoneally and orally, respectively. A single dose was administered to 8–12-month-old mice for PK and a daily intraperitoneal dose to 2-month-old mice for 4 weeks for further behavioral and biochemical studies. […] PK was performed in collaboration with Sai life Science Ltd. Blood samples were collected from retro-orbital plexus into ethylenediamine tetraacetic acid (EDTA) tubes from a set of three mice at each time point. Plasma was immediately harvested from the blood by centrifugation at 2,500 g for 10 min at 4°C. […] Concentrations of FD44 in mouse plasma and brain samples were determined by the fit-for-purpose liquid chromatography with tandem mass spectrometry (LC-MS/MS) method. PK parameters were calculated using the non-compartmental analysis tool of Phoenix WinNonlin® (Version 7.0). Areas under the concentration time curve (AUClast and AUCinf) were calculated using a linear trapezoidal rule. […]
Tissue samples were preserved at −80°C until analysis. […] DA and its metabolites were measured from supernatants by HPLC with an ESA Coulochem detector, according to Mena et al. ([1993]). […] Monoamine levels were identified by their retention time, and amounts were calculated against calibrated external standard solutions. […]

Fmr1 KO2 mice [2] = assay: Aggression test (latency between attacks) in Fmr1 KO2 mice; format: in vivo, mouse; settings: 10 mg/kg IP daily for 4 weeks
Protocol: (§1) FD44 solution formulation in 5% NMP, 5% Solutol HS-15, 30% PEG-400, and 60% citric acid (10 mM) was administered in doses of 10 and 50 mg/kg dose intraperitoneally and orally, respectively. A single dose was administered to 8–12-month-old mice for PK and a daily intraperitoneal dose to 2-month-old mice for 4 weeks for further behavioral and biochemical studies. […] PK was performed in collaboration with Sai life Science Ltd. Blood samples were collected from retro-orbital plexus into ethylenediamine tetraacetic acid (EDTA) tubes from a set of three mice at each time point. Plasma was immediately harvested from the blood by centrifugation at 2,500 g for 10 min at 4°C. […] Concentrations of FD44 in mouse plasma and brain samples were determined by the fit-for-purpose liquid chromatography with tandem mass spectrometry (LC-MS/MS) method. PK parameters were calculated using the non-compartmental analysis tool of Phoenix WinNonlin® (Version 7.0). Areas under the concentration time curve (AUClast and AUCinf) were calculated using a linear trapezoidal rule.
(§2) Stereotype was evaluated by self-grooming. For this, mice were placed individually in a cage, after a 5-min habituation period, the time spent to grooming any part of the body was recorded for 3 min. […] The latency between attacks was measured for 3 min.

Fmr1 KO mice [3] = assay: Three-chamber social test in Fmr1 KO mice; format: in vivo, mouse; settings: 10 mg/kg IP for 4 weeks
Protocol: (§3) FD44 solution formulation in 5% NMP, 5% Solutol HS-15, 30% PEG-400, and 60% citric acid (10 mM) was administered in doses of 10 and 50 mg/kg dose intraperitoneally and orally, respectively. A single dose was administered to 8–12-month-old mice for PK and a daily intraperitoneal dose to 2-month-old mice for 4 weeks for further behavioral and biochemical studies. […] PK was performed in collaboration with Sai life Science Ltd. Blood samples were collected from retro-orbital plexus into ethylenediamine tetraacetic acid (EDTA) tubes from a set of three mice at each time point. Plasma was immediately harvested from the blood by centrifugation at 2,500 g for 10 min at 4°C. Immediately after collection of blood, brain samples were collected and homogenized using ice-cold phosphate buffer saline. Concentrations of FD44 in mouse plasma and brain samples were determined by the fit-for-purpose liquid chromatography with tandem mass spectrometry (LC-MS/MS) method. PK parameters were calculated using the non-compartmental analysis tool of Phoenix WinNonlin® (Version 7.0). Areas under the concentration time curve (AUClast and AUCinf) were calculated using a linear trapezoidal rule.
The three-chamber test assesses cognition in the form of interest in social novelty. Testing occurs in a three-chambered box with openings between the chambers. […] The time spent in each chamber is quantified for 6 min.

neuronal cultures = test system: neuronal cultures; parameters: method as in Mansilla et al., 2017; settings: ref Mansilla et al., 2017; cited from earlier work
[4] = Pharmacokinetic profile, plasma and brain, single dose in BALB/c WT mice; format: in vivo; settings: mouse
Protocol: The pharmacokinetic (PK) assay was performed by Sai Life Sciences Ltd. in BALB/c WT mice aged 8–12-months.
as §3

NCS-1/Ric8a complex [5] = molecular target: T1, NCS-1/Ric8a complex (Homo sapiens, UniProt P62166); assay: In situ proximity ligation assay (PLA) of NCS-1 binding to Ric8a in HEK293 cells; format: cell-based; settings: FD44 20 μM
T1 construct: expressed in transfected cells; host or cells: HEK293
T1 sequence (P62166 2-190 limits assumed, one chain of several): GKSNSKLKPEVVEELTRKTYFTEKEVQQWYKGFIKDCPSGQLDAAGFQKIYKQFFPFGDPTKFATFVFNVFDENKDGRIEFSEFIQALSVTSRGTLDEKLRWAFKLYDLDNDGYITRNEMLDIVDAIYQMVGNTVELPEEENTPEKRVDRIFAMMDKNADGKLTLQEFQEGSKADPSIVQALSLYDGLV
Protocol: Human embryonic kidney HEK293 cells were grown in Dulbecco's modified Eagle's medium supplemented with 2 mM L-glutamine, 100 U/ml penicillin/streptomycin, MEM non-essential amino acid solution (1/100), and 5% (v/v), and heat-inactivated fetal bovine serum (all from Thermo). The human NCS-1 and Ric8a-V5 constructs were previously generated (Mansilla et al., [2017]). Plasmids were co-transfected onto HEK293 using Lipofectamin 2000 (Thermo) following the manufacturer's instructions. Approximately 20 μM of FD44 diluted in dimethyl sulfoxide (DMSO) or the same volume of DMSO was added to culture cells 24 h after transfection.
For the in situ proximity ligation assay (PLA), cells were grown in coverslips and, after transfection and treatment, fixed for 20 min with a fixation reagent, and later permeabilized with a permeabilization reagent, all from the Intracellular Fixation and Permeabilization buffer set (eBioscience, Thermo). […] Finally, interactions were detected with Duolink in Situ PLA Green Detection kit (Sigma) following the manufacturer's instructions. Cover slips were mounted with ProLong reagent (Thermo) containing Hoescht, and staining was analyzed with a standard fluorescence microscope.
To better quantify the interaction, PLA was performed followed by flow cytometry. […] Cells were analyzed on FACS Canto II (BD Bioscience) with BD FACS Diva software.

D1R = test system: D1R; parameters: method as in Mansilla et al., 2017; settings: ref Mansilla et al., 2017; cited from earlier work
D2R = test system: D2R; parameters: method as in Mansilla et al., 2017; settings: ref Mansilla et al., 2017; cited from earlier work
[6] = parameters: method as in Mansilla et al., 2017; settings: among compounds previously identified as NCS-1/Ric8a inhibitors; ref Mansilla et al., 2017; cited from earlier work
Fmr1 KO2 mice [7] = assay: Fear conditioning (associative learning) in Fmr1 KO2 mice; format: in vivo, mouse; settings: 10 mg/kg IP daily for 4 weeks
Protocol: as §3
Associative learning of an aversive sound followed by an electrical shock was used to analyze fear conditioning. […] Memory was tested 24 h after training, and freezing time was recorded for 5 min.

[8] = test system: Fmr1 KO, Fmr1 KO2, and WT mice; assay: Tolerability on treatment of mice; format: in vivo; settings: 10 mg/kg IP / 50 mg/kg PO
Protocol: as §3

Fmr1 KO2 mice [9] = assay: Open field test (hyperactivity) in Fmr1 KO2 mice; format: in vivo, mouse; settings: 10 mg/kg IP daily for 4 weeks
Protocol: as §1
(§4) Tests were conducted at the end of the treatment, that is, 4th week, and mice were tested on one behavioral task a day. […] Activity was monitored by IR beam breaks and decoded using VersaDat software (AccuScan). […] The distance traveled for 30 min was measured in centimeter for all cases.

Fmr1 KO2 mice [10] = assay: Self-grooming (stereotype) in Fmr1 KO2 mice; format: in vivo, mouse; settings: 10 mg/kg IP daily for 4 weeks
Protocol: as §1, §2

Fmr1 KO mice [11] = assay: Open field test (hyperactivity) in Fmr1 KO mice; format: in vivo, mouse; settings: 10 mg/kg IP for 4 weeks
Protocol: as §1, §4

NCS-1/Ric8a complex [12] = test system: NCS-1/Ric8a complex; parameters: method as in Mansilla et al., 2017; settings: cell lysate; ref Mansilla et al., 2017; cited from earlier work

For O=C(CN1CCCCC1)NN1c2ccccc2Sc2ccccc21 [FD44], the associative learning [1] is given as “restored”, the synapse number [1] is given as “restored” and the “DA metabolism ratio (metabolites HVA + DOPAC/DA) increase in the limbic area” value (DA metabolism) is given as “reversed”. The “aggression, latency between attacks” value (Fmr1 KO2 mice [2]) was “low level of aggressiveness similar to their WT counterparts”, the “social interest, time in chamber with unfamiliar vs familiar mouse (three-chamber test)” value (Fmr1 KO mice [3]) was “able to restore the impaired social interest” and the “toxicity in neuronal cultures” value (neuronal cultures) was “low toxicity”. For the same compound, the Cmax ([4]; IP, 10 mg/kg single dose, brain) was 2560.16 ng/mL, the Tmax ([4]; IP, 10 mg/kg single dose, brain, 10 mg/kg) was 15 min and the Brain-to-plasma ratio ([4]; IP, 10 mg/kg single dose) was 2.48–7.65. The “time up to which brain concentrations were quantifiable” value ([4]; IP, 10 mg/kg single dose) was “up to 480 min”, the “time up to which plasma concentrations were quantifiable” value ([4]; IP, 10 mg/kg single dose) was “up to 480 min” and the Cmax ([4]; IP, 10 mg/kg single dose, plasma) was 981.19 ng/mL. The Tmax ([4]; IP, 10 mg/kg single dose, plasma, 10 mg/kg) was 5 min, the Cmax ([4]; PO, 50 mg/kg single dose, brain) was 5164.38 ng/mL and the Tmax ([4]; PO, 50 mg/kg single dose, brain, 50 mg/kg) was 15 min. The Brain-to-plasma ratio ([4]; PO, 50 mg/kg single dose) was 2.90 to 6.81, the “time up to which brain concentrations were quantifiable” value ([4]; PO, 50 mg/kg single dose) was “up to 480 min” and the “time up to which plasma concentrations were quantifiable” value ([4]; PO, 50 mg/kg single dose) was “up to 480 min”. For the same compound, the Cmax ([4]; PO, 50 mg/kg single dose, plasma) was 858.90 ng/mL, the Tmax ([4]; PO, 50 mg/kg single dose, plasma, 50 mg/kg) was 15 min and the “blood–brain barrier crossing” value ([4]; IP and PO PK study) was “perfectly crosses the blood–brain barrier”. The “intensity and number of green fluorescence spots representing the NCS-1/Ric8a binding (PLA, microscopy)” value (NCS-1/Ric8a complex [5]; HEK293 co-transfected with NCS-1 and Ric8a-V5, 24 h) was “reduced”, the “reduction in binding (PLA followed by flow cytometry, mean fluorescence intensity)” value (NCS-1/Ric8a complex [5]; HEK293 co-transfected with human NCS-1 and Ric8a-V5, last 24 h, four independent experiments) was 40% and the “interaction with dopamine receptor D1R” value (D1R) was “does not interact”. The “interaction with dopamine receptor D2R” value (D2R) was “does not interact”, the solubility profile [6] was “best solubility profile” and the “associative learning, freezing response after fear conditioning” value (Fmr1 KO2 mice [7]) was “completely rescued impaired associative learning”. For the same compound, the “tolerability, clinical signs” value [8] was “well tolerated”, the “hyperactivity, distance traveled in the open field” value (Fmr1 KO2 mice [9]) was “complete recovery” and the “stereotype, self-grooming” value (Fmr1 KO2 mice [10]) was “restored”. For the same compound, the “hyperactivity, distance traveled in the open field” value (Fmr1 KO mice [11]) was “normalizes” and the “inhibitory effect in a binding assay in vitro (co-immunoprecipitation)” value (NCS-1/Ric8a complex [12]) was “almost total inhibitory effect”.
